Results taken from ChEMBL document CHEMBL5241072, “Overview of piperlongumine analogues and their therapeutic potential” (Eur J Med Chem, 2021).
pIC50: −log10 of the molar value.

Assays:
[1] = test system: A549; test: Antiproliferative activity against human A549 cells assessed as cell growth inhibition; assay type: functional, cell-based
[2] = molecular target: 20S proteasome; test: Inhibition of human 20S proteasome; assay type: protein-complex assay
[3] = Cytotoxicity against mouse RAW264.7 cells assessed as cell growth inhibition; assay type: toxicity, cell-based
[4] = test system: Hepatitis B virus; test: Antiviral activity against HBV infected in human HepG2.2.15 cells assessed as reduction in extracellular HBV DNA level; assay type: functional, organism-based
[5] = test system: Hepatitis B virus; test: Antiviral activity against HBV infected in human HepG2.2.15 cells assessed as reduction in intracellular HBV DNA level; assay type: functional, organism-based
[6] = organism: Oryctolagus cuniculus; test: Antiplatelet activity in rabbit plasma assessed as inhibition of arachidonic acid induced platelet aggregation by microplate reader analysis; assay type: functional
[7] = organism: Oryctolagus cuniculus; test: Antiplatelet activity in rabbit plasma assessed as inhibition of ADP induced platelet aggregation by microplate reader analysis; assay type: functional
[8] = test system: NCI-H1703; test: Antiproliferative activity against human NCI-H1703 cells assessed as cell growth inhibition; assay type: functional, cell-based
[9] = test system: HeLa; test: Antiproliferative activity against human HeLa cells assessed as cell growth inhibition; assay type: functional, cell-based
[10] = organism: Oryctolagus cuniculus; test: Antiplatelet activity in rabbit plasma assessed as inhibition of arachidonic acid induced platelet aggregation at 150 uM by aggregometer analysis relative to control; assay type: functional; set-up: scale not given: the % may be the effect or the level left
[11] = test system: NSCLC; test: Cytotoxicity against human NSCLC cells assessed as cell growth inhibition; assay type: functional, cell-based
[12] = test system: MDA-MB-231; test: Antiproliferative activity against human MDA-MB-231 cells assessed as cell growth inhibition; assay type: functional, cell-based
[13] = test system: MDA-MB-231; test: Potency index, ratio of piperlongumine IC50 to compound IC50 for inhibition of TrxR in human MDA-MB-231 cells; assay type: cell-based
[14] = Inhibition of TrxR in human MDA-MB-231 cells; assay type: cell-based
[15] = test system: MDA-MB-231; test: Antitumor activity against BALB/c mouse xenografted with human MDA-MB-231 cells assessed as tumor growth inhibition at 25 mg/kg, ip measured after 21 days relative to control; assay type: functional; details: MDA-MB-231, 504 h, time 21 day, read-out: TGI
[16] = test system: PC-12; test: Neuroprotective activity against H2O2-induced cytotoxicity in rat PC-12 cells assessed as cell survival rate preincubated for 24 hrs followed by H2O2 stimulation and measured after 24 hrs by MTT assay relative to control; assay type: functional; details: time 48 hrs
[17] = test system: HGC-27; test: Potency index, ratio of piperlongumine IC50 to compound IC50 for antiproliferative activity against human HGC-27 cells; assay type: functional
[18] = Inhibition of TrxR in human HGC-27 cells; assay type: cell-based
[19] = test system: HGC-27; test: Potency index, ratio of piperlongumine IC50 to compound IC50 for inhibition of TrxR in human HGC-27 cells; assay type: cell-based
[20] = test system: HGC-27; test: Antiproliferative activity against human HGC-27 cells assessed as cell growth inhibition; assay type: functional, cell-based
[21] = test system: HCT-8; test: Antiproliferative activity against human HCT-8 cells assessed as cell growth inhibition; assay type: functional, cell-based
[22] = test system: HL-60; test: Antiproliferative activity against human HL-60 cells assessed as cell growth inhibition in presence of piperlongumine; assay type: functional, cell-based
[23] = test system: SF-295; test: Antiproliferative activity against human SF-295 cells assessed as cell growth inhibition in presence of piperlongumine; assay type: functional, cell-based
[24] = test system: HL-60; test: Antiproliferative activity against human HL-60 cells assessed as cell growth inhibition; assay type: functional, cell-based
[25] = test system: MDA-MB-435; test: Antiproliferative activity against human MDA-MB-435 cells assessed as cell growth inhibition; assay type: functional, cell-based
[26] = test system: MDA-MB-435; test: Antiproliferative activity against human MDA-MB-435 cells assessed as cell growth inhibition in presence of piperlongumine; assay type: functional, cell-based
[27] = test system: SF-295; test: Antiproliferative activity against human SF-295 cells assessed as cell growth inhibition; assay type: functional, cell-based
[28] = test system: HCT-8; test: Antiproliferative activity against human HCT-8 cells assessed as cell growth inhibition in presence of piperlongumine; assay type: functional, cell-based
[29] = test system: KB; test: Antiproliferative activity against human KB cells assessed as cell growth inhibition; assay type: functional
[30] = Antiproliferative activity against human OC2 cells assessed as cell growth inhibition; assay type: functional, cell-based
[31] = test system: HCT-116; test: Antiproliferative activity against human HCT-116 cells assessed as cell growth inhibition; assay type: functional, cell-based
[32] = test system: MOLT-4; test: Antiproliferative activity against human MOLT-4 cells assessed as cell growth inhibition; assay type: functional, cell-based
[33] = test system: MCF7; test: Antiproliferative activity against human MCF7 cells assessed as cell growth inhibition; assay type: functional, cell-based
[34] = test system: PC-3; test: Antiproliferative activity against human PC-3 cells assessed as cell growth inhibition; assay type: functional, cell-based
[35] = test system: 8-MG-BA; test: Antiproliferative activity against human 8-MG-BA cells assessed as cell growth inhibition; assay type: functional, cell-based
[36] = test system: AGS; test: Antiproliferative activity against human AGS cells assessed as cell growth inhibition; assay type: functional, cell-based
[37] = test system: P388; test: Antiproliferative activity against mouse P388 cells assessed as cell growth inhibition; assay type: functional, cell-based
[38] = Antiproliferative activity against human OCSL cell assessed as cell growth inhibition; assay type: functional, cell-based
[39] = Antiproliferative activity against human NCI-H660 cells assessed as cell growth inhibition; assay type: functional, cell-based
[40] = Antiproliferative activity against human A875 cells assessed as cell growth inhibition; assay type: functional, cell-based
[41] = test system: DU-145; test: Antiproliferative activity against human DU-145 cells assessed as cell growth inhibition; assay type: functional, cell-based
[42] = test system: LN-229; test: Antiproliferative activity against human LN-229 cells assessed as cell growth inhibition; assay type: functional, cell-based
[43] = test system: CCRF-CEM; test: Antiproliferative activity against human CEM cells assessed as cell growth inhibition; assay type: functional, cell-based
[44] = test system: K562; test: Antiproliferative activity against human K562 cells assessed as cell growth inhibition; assay type: functional, cell-based
[45] = Antiproliferative activity against human U87 cells assessed as cell growth inhibition; assay type: functional, cell-based, U-87MG ATCC; details: U-87 MG
[46] = test system: A-375; test: Antiproliferative activity against human A-375 cells assessed as cell growth inhibition; assay type: functional, cell-based
[47] = test system: HT-29; test: Antiproliferative activity against human HT-29 cells assessed as cell growth inhibition; assay type: functional, cell-based
[48] = test system: Jurkat; test: Antiproliferative activity against human Jurkat cells assessed as cell growth inhibition; assay type: functional, cell-based
[49] = test system: MKN-45; test: Antiproliferative activity against human MKN-45 cells assessed as cell growth inhibition; assay type: functional, cell-based

`COc1cc(/C=C/C(=O)N2CCC=C(Cl)C2=O)cc(OC)c1OC` showed a pIC50 [1] of 5.38.

`C=CC(=O)NC(=O)/C=C/c1cc(OC)c(OC)c(OC)c1` showed a pIC50 [2] of 5.59.

`COc1cc(/C=C/C(=O)C2CCC=CC2=O)cc(OC)c1OC` (configuration not stated) showed a pIC50 [3] of 5.22.

With `CC(=O)Nc1ccc(-c2cc(C)c(=O)n(Cc3ccc(Cl)cc3)n2)cc1` the pIC50 [4] was 5.82 and the pIC50 [5] was 5.52.

Work on `O=C1C=CCCN1C(=O)/C=C/c1ccc2ccccc2n1` yielded a pIC50 [6] of 6.89 and a pIC50 [7] of 3.39.

For `O=C(/C=C/c1ccc2ccccc2n1)N1CCC=C(Cl)C1=O`, the pIC50 [6] was 6.97 and the pIC50 [7] was 2.50.

`COc1cc(/C=C/C(=O)N2CCC=C(C#CC3CC3)C2=O)cc(OC)c1OC` gave a pIC50 [8] of 6.15 and a pIC50 [9] of 5.89.

In the case of `O=C(/C=C/c1cnccn1)N1CCC=C(Cl)C1=O`, the Activity [10] was 100%.

`COc1cc(/C=C2\CN(C=O)C/C(=C\c3cc(OC)c(OC)c(OC)c3)C2=O)cc(OC)c1OC` gave a pIC50 [11] of 6.22.

`O=C1C=CCC/C1=C\c1ccc(Oc2ccc(/C=C3\CCC=CC3=O)cc2)cc1` showed a pIC50 [12] of 6.20, a Ratio IC50 [13] of 10 and a pIC50 [14] of 6.80. It also gave an inhibition in vivo at 25 mg/kg [15] of 67%.

In the case of `COc1cc(OC)c(/C=C2\CC/C(=C\c3cc(OC)c(OC)c(OC)c3)C2=O)c(OC)c1`, the Survival [16] was 80%.

For `COCCOCCOc1ccc(/C=C2\CCC=CC2=O)cc1OC`, the “Ratio IC50” value [17] was 10, the pIC50 [18] was 6.82 and the Ratio IC50 [19] was 12. It also gave a pIC50 [20] of 6.12.

Compound `O=c1[nH]cc(F)c(=O)[nH]1` [FLUOROURACIL] has a pIC50 [21] of 4.95, a pIC50 [22] of 4.42 and a pIC50 [23] of 6.31. For the same compound, the pIC50 [24] was 4.07, the pIC50 [25] was 5.04 and the pIC50 [26] was 5.71. The pIC50 [27] was 5.63 and the pIC50 [28] was 5.33.

Compound `COc1cc(/C=C/C(=O)N2CCC=CC2=O)cc(OC)c1OC` [PIPLARTINE] has a pIC50 [11] of 5.04, a pIC50 [21] of 5.66 and a pIC50 [2] of 4.82. It also gave an IC50 [29] of 5.6 µM, a pIC50 [30] of 5.13 and a pIC50 [31] of 4.86. The pIC50 [12] was 5.76, the pIC50 [32] was 5.77 and the pIC50 [33] was 4.60. It also gave a pIC50 [34] of 5.31, a pIC50 [35] of 5.00 and a pIC50 [36] of 4.70. The pIC50 [37] was 5.55, the pIC50 [38] was 4.95 and the pIC50 [39] was 6.40. For the same compound, the pIC50 [40] was 5.60, the pIC50 [6] was 4.68 and the pIC50 [41] was 5.47. The pIC50 [24] was 5.28, the pIC50 [20] was 5.12 and the pIC50 [1] was 4.99. It also gave a pIC50 [42] of 5.00, a pIC50 [43] of 5.36 and a pIC50 [44] of 5.24. The pIC50 [45] was 5.00, the pIC50 [46] was 5.60 and the Activity [10] was 76.4%. For the same compound, the pIC50 [47] was 5.85, the pIC50 [48] was 5.28 and the pIC50 [7] was 2.17. For the same compound, the pIC50 [14] was 5.82 and the pIC50 [49] was 4.70.
